# Measurements: patent publication US20240109900A1, “AZABICYCLIC SHP2 INHIBITORS” (IRBM S.P.A., priority 2021, published 2024)
# Like-named read-outs stand apart in the source and are kept apart here.
# Experiments:
# [1] = target: SHP-2 enzyme (Met1-Leu525) (Homo sapiens (Human), UniProt Q06124); test: SHP2 inhibition enzymatic assay; assay type: biochemical; conditions: 0.5 nM SHP-2 activated by 500 nM IRS1 peptide, 75 μM DiFMUP substrate; read-out: SHP2wt-IC50
# Summary of the method: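 SHP-2 (Met1-Leu525), 0.5 nM, activated with 500 nM IRS1 bis-phosphopeptide, preincubated 30 min with compounds in HEPES pH 7.2 buffer with 5 mM DTT. 75 μM DiFMUP added for 30 min at room temperature, stopped with bpV; fluorescence read. IC50 from four-parameter logistic fit of % inhibition.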
# [2] = system: ERK phosphorylation in KYSE-520 cells; test: Phospho-ERK cellular assay; assay type: cell-based; conditions: KYSE-520 cells, 2 h at 37° C., phospho-ERK1/2 (Thr202/Tyr204) TR-FRET, read-out: PERK IC50
# Summary of the method: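 TR-FRET read-out of ERK1/2 Thr202/Tyr204 phosphorylation was taken after overnight antibody incubation at room temperature. Before that, KYSE-520 cells were treated 2 h at 37 °C with compound dilutions and lysed 30 min. Percent inhibition relative to vehicle and cell-free wells was fitted four-parametrically to give IC50.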
# Sequence of SHP-2 enzyme (Met1-Leu525) (Q06124 1-525): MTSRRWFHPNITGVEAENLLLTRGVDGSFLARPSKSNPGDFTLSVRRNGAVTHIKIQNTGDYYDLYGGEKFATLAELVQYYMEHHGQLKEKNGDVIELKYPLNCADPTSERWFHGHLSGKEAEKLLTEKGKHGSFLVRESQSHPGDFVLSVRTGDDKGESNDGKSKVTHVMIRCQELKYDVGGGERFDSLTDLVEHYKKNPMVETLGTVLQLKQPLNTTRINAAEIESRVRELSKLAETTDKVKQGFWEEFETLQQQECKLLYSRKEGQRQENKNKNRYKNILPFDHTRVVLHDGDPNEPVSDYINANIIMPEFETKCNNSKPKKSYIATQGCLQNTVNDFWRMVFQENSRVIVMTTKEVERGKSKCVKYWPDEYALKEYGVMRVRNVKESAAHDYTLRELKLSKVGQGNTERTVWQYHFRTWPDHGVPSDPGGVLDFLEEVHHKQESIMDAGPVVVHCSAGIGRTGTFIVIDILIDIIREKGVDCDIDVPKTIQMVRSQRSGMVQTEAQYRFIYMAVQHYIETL
SMILES,IC50 [1] [µM],"IC50 ([2]; Homo sapiens, KYSE-520, 2 h) [µM]",IC50 [2] [µM]
"Cc1csc([C@@]2(CN)[C@@H]3CN(c4nc5[nH]cc(-c6ccc7nn(C)cc7c6Cl)c5c(=O)n4C)C[C@@H]32)n1 [Example 473, 2-((1R,5S,6r)-6-(aminomethyl)-6-(4-methylthiazol-2-yl)-3-azabicyclo[3.1.0]hexan-3-yl)-5-(4-chloro-2-methyl-2H-indazol-5-yl)-3-methyl-3,7-dihydro-4H-pyrrolo[2,3-d]pyrimidin-4-one]",< 0.5,< 1,
"Cn1ccc([C@@]2(CN)[C@@H]3CN(c4cnc5c(-c6ccc7nn(C)cc7c6Cl)n[nH]c5n4)C[C@@H]32)n1 [Example 474, ((1R,5S,6r)-3-(3-(4-chloro-2-methyl-2H-indazol-5-yl)-1H-pyrazolo[3,4-b]pyrazin-6-yl)-6-(1-methyl-1H-pyrazol-3-yl)-3-azabicyclo[3.1.0]hexan-6-yl)methanamine]",< 0.5,< 1,
"Cc1nc2ccc(-c3n[nH]c4nc(N5C[C@@H]6[C@H](C5)[C@@]6(CN)c5ccn(C)n5)cnc34)c(Cl)c2s1 [Example 475, ((1R,5S,6r)-3-(3-(7-chloro-2-methylbenzo[d]thiazol-6-yl)-1H-pyrazolo[3,4-b]pyrazin-6-yl)-6-(1-methyl-1H-pyrazol-3-yl)-3-azabicyclo[3.1.0]hexan-6-yl)methanamine]",< 0.5,< 1,
COc1nccc(-c2n[nH]c3nc(N4C[C@@H]5[C@H](C4)C5(CN)c4nc(C)cs4)cnc23)c1Cl (stereo partly shown) [Example 476],< 0.5,,< 1
Cc1csc(C2(CN)[C@@H]3CN(c4cnc5c(-c6ccc7nn(CC#N)cc7c6Cl)n[nH]c5n4)C[C@@H]32)n1 (stereo partly shown) [Example 478],< 0.5,,< 1
Cc1csc([C@@]2(CN)[C@@H]3CN(c4cnc5c(-c6ccc7nnsc7c6Cl)n[nH]c5n4)C[C@@H]32)n1 [Example 479],< 0.5,,< 1
Cc1csc(C2(CN)[C@@H]3CN(c4cnc5c(-c6ccc7c(cnn7C)c6Cl)n[nH]c5n4)C[C@@H]32)n1 (stereo partly shown) [Example 480],< 0.5,,< 1
"Cc1csc([C@@]2(CN)[C@@H]3CCN(c4cnc5c(-c6cc7ccnn7cc6Cl)n[nH]c5n4)C[C@@H]32)n1 [Example 481, ((1S,6R,7S)-3-(3-(6-chloropyrazolo[1,5-a]pyridin-5-yl)-1H-pyrazolo[3,4-b]pyrazin-6-yl)-7-(4-methylthiazol-2-yl)-3-azabicyclo[4.1.0]heptan-7-yl)methanamine]",< 0.5,< 1,
Cc1csc(C2(CN)[C@@H]3CN(c4cnc5c(-c6cccn7nccc67)n[nH]c5n4)C[C@@H]32)n1 (stereo partly shown) [Example 482],< 0.5,,< 1
Cc1csc([C@@]2(CN)[C@@H]3CN(c4cnc5c(-c6ccc7ncn(C)c7c6Cl)n[nH]c5n4)C[C@@H]32)n1 [Example 483],< 0.5,,< 1
"CNC[C@]1(c2nc(C)cs2)[C@@H]2CN(c3cnc4c(-c5ccc6nn(C)cc6c5Cl)n[nH]c4n3)C[C@@H]21 [Example 484, 1-((1R,5S,6r)-3-(3-(4-chloro-2-methyl-2H-indazol-5-yl)-1H-pyrazolo[3,4-b]pyrazin-6-yl)-6-(4-methylthiazol-2-yl)-3-azabicyclo[3.1.0]hexan-6-yl)-N-methylmethanamine]",< 0.5,< 1,
"Cc1nc([C@@]2(CN)[C@@H]3CN(c4cnc5c(-c6ccc7nn(C)cc7c6Cl)n[nH]c5n4)C[C@@H]32)cs1 [Example 485, ((1R,5S,6r)-3-(3-(4-chloro-2-methyl-2H-indazol-5-yl)-1H-pyrazolo[3,4-b]pyrazin-6-yl)-6-(2-methylthiazol-4-yl)-3-azabicyclo[3.1.0]hexan-6-yl)methanamine]",< 0.5,< 1,
"Cn1cc2c(Cl)c(-c3n[nH]c4nc(N5C[C@@H]6[C@H](C5)[C@@]6(CN)c5nccs5)cnc34)ccc2n1 [Example 486, ((1R,5S,6r)-3-(3-(4-chloro-2-methyl-2H-indazol-5-yl)-1H-pyrazolo[3,4-b]pyrazin-6-yl)-6-(thiazol-2-yl)-3-azabicyclo[3.1.0]hexan-6-yl)methanamine]",< 0.5,< 1,
"Cn1cc2c(Cl)c(-c3n[nH]c4nc(N5C[C@@H]6[C@H](C5)[C@@]6(CN)c5nc(Cl)cs5)cnc34)ccc2n1 [Example 487, ((1R,5S,6r)-3-(3-(4-chloro-2-methyl-2H-indazol-5-yl)-1H-pyrazolo[3,4-b]pyrazin-6-yl)-6-(4-chlorothiazol-2-yl)-3-azabicyclo[3.1.0]hexan-6-yl)methanamine]",< 0.5,< 1,
"Cn1cc2c(Cl)c(-c3n[nH]c4nc(N5C[C@@H]6[C@H](C5)[C@@]6(CN)c5nc(C(F)(F)F)cs5)cnc34)ccc2n1 [Example 488, ((1R,5S,6r)-3-(3-(4-chloro-2-methyl-2H-indazol-5-yl)-1H-pyrazolo[3,4-b]pyrazin-6-yl)-6-(4-(trifluoromethyl)thiazol-2-yl)-3-azabicyclo[3.1.0]hexan-6-yl)methanamine]",< 0.5,< 1,
"Cn1cc2c(Cl)c(-c3n[nH]c4nc(N5C[C@@H]6[C@H](C5)[C@@]6(CN)c5ncc(F)s5)cnc34)ccc2n1 [Example 489, ((1R,5S,6r)-3-(3-(4-chloro-2-methyl-2H-indazol-5-yl)-1H-pyrazolo[3,4-b]pyrazin-6-yl)-6-(5-fluorothiazol-2-yl)-3-azabicyclo[3.1.0]hexan-6-yl)methanamine]",< 0.5,< 1,
"Cn1cc2c(Cl)c(-c3n[nH]c4nc(N5C[C@@H]6[C@H](C5)[C@@]6(CN)c5cnsn5)cnc34)ccc2n1 [Example 490, ((1R,5S,6r)-3-(3-(4-chloro-2-methyl-2H-indazol-5-yl)-1H-pyrazolo[3,4-b]pyrazin-6-yl)-6-(1,2,5-thiadiazol-3-yl)-3-azabicyclo[3.1.0]hexan-6-yl)methanamine]",< 0.5,< 1,
"Cn1cc2c(Cl)c(-c3n[nH]c4nc(N5C[C@@H]6[C@H](C5)[C@@]6(CN)c5ccccn5)cnc34)ccc2n1 [Example 491, ((1R,5S,6r)-3-(3-(4-chloro-2-methyl-2H-indazol-5-yl)-1H-pyrazolo[3,4-b]pyrazin-6-yl)-6-(pyridin-2-yl)-3-azabicyclo[3.1.0]hexan-6-yl)methanamine]",< 0.5,< 1,
"Cc1nc2ccc(-c3n[nH]c4nc(N5C[C@@H]6[C@H](C5)[C@@]6(CN)c5ccccn5)cnc34)c(Cl)c2s1 [Example 492, ((1R,5S,6r)-3-(3-(7-chloro-2-methylbenzo[d]thiazol-6-yl)-1H-pyrazolo[3,4-b]pyrazin-6-yl)-6-(pyridin-2-yl)-3-azabicyclo[3.1.0]hexan-6-yl)methanamine]",< 0.5,< 1,
"Cc1ccc([C@@]2(CN)[C@@H]3CN(c4cnc5c(-c6ccc7nn(C)cc7c6Cl)n[nH]c5n4)C[C@@H]32)nc1 [Example 493, ((1R,5S,6r)-3-(3-(4-chloro-2-methyl-2H-indazol-5-yl)-1H-pyrazolo[3,4-b]pyrazin-6-yl)-6-(5-methylpyridin-2-yl)-3-azabicyclo[3.1.0]hexan-6-yl)methanamine]",< 0.5,< 1,
